Common to all, as to format: in vivo
For one assay, the system named is phospho-Smad 1/5/8. The assay is described as follows: Phospho-Smad 1/5/8 immunohistochemistry in MGP−/− aortas. To be noted: MGP−/− mice, 2.5 mg/kg once daily IP day 1 to 28. The procedure: MGP−/− mice were treated with either vehicle or the small molecule BMP type I receptor inhibitor compound 13 (2.5 mg/kg once daily IP) from day 1 to 28. Compound 13 is used as a BMP inhibitor positive control compound in these experiments. Whole aortas were harvested for phospho-Smad 1/5/8 (P-Smad) immunohistochemistry, a marker of BMP signaling, and for Alizarin Red staining of calcium. Osteogenic activity in aortas was visualized ex vivo by the uptake of a fluorescent bisphosphonate imaging probe. MGP−/− mice were also treated with vehicle or compound 13 to ascertain if inhibition of BMP signaling could impact survival, using Kaplan-Meier and Cox regression analysis. […] To further quantify aortic calcium, a fluorescent bisphosphonate agent that specifically binds to hydroxyapatite (OsteoSense 680 nm, Perkin Elmer) was used. (Aikawa E, et al. Multimodality molecular imaging identifies proteolytic and osteogenic activities in early aortic valve disease. Circulation. 2007; 115(3):377-386 and Zaheer A, et al. In vivo near-infrared fluorescence imaging of osteoblastic activity. Nature biotechnology. 2001; 19(12):1148-1154.) MGP−/− mice at 27 days of age treated with vehicle or compound 13 received OsteoSense via tail vein, and 24 h later, aortas were harvested for imaging. […]

Assay [1] relates to phosphorylated SMADs 1/5/8. The experiment in a line: p-SMAD1/5/8 immunofluorescence in atherosclerotic lesions of LDLR−/− mice. The text has this: BMP signaling activity in the nascent lesions of LDLR^−/− mice was characterized. Phosphorylated BMP-responsive SMADs (p-SMAD1/5/8), effectors of the BMP signaling pathway that are retained in the nuclei of activated cells, were detected by immunofluorescence in endothelial cells, macrophages, and the media of atheromatous lesions (FIG. 1b), particularly in the lesser curvature of the aorta, beginning three weeks on HFD. Activation of BMP signaling persisted for at least 20 weeks and was abundant near calcific lesions (FIG. 3). To confirm that the activation of SMAD1/5/8 observed in the vessels of LDLR^−/− mice was attributable to BMP signaling, a BMP type I receptor inhibitor, compound 13, was administered (2.5 mg/kg ip daily for five days) to LDLR^−/− mice that had received HFD for 6 weeks.
(§1) For immunofluorescence, frozen sections were post-fixed in cold methanol and incubated with polyclonal antibodies specific for p-SMAD1/5/8 (1:100, Cell Signaling, Danvers, Mass.) or MAC2 (1:100, Cedarlane, Burlington, ON) followed by FITC labeled Goat Anti-Rabbit IgG or Rhodamine Goat Anti-Rat IgG (both Jackson Immuno Research, West Grove, Pa.), respectively.
LDLr−/− mice were started on a hypercholesterolemic diet at 8 weeks, and treated with either vehicle (saline) or a BMP inhibitor positive control compound (compound 13, 2.5 mg/kg/d intraperitoneally) for an additional 8 weeks. Aortae were harvested and fixed, and then stained with antibodies sensitive for the BMP effector molecule, phosphorylated-SMAD1/5/8, and counterstained with DAPI nuclear stain. Within 6-8 weeks of being subjected to a high fat diet, LDR−/− mice developed fatty lesions in the intima of the aortic root, based on traditional histochemical staining techniques (data not shown). […] Thus, the cellular components of lipid rich plaques, predominantly macrophage-derived foam cells, had evidence of intense activation of the BMP signaling pathway. […]

The subject of another assay is LDLR−/− mice. The assay is described as follows: Vascular inflammation / macrophage activity in LDLR−/− mice (Prosense, MAC2). As to conditions: for vascular inflammation / macrophage activity (Prosense): high fat diet 20 weeks, 2.5 mg/kg ip daily, vs vehicle, 2.5 mg/kg. On the procedure:
Fluorescence reflectance imaging (FRI), was performed as previously described. […] After dissection, aortae were subjected to ex vivo near infrared fluorescence reflectance imaging using an Odyssey Imaging System (LI-COR Biotechnology, Lincoln, Nebr.), with integrated signal intensities determined for regions of interest using software version 3.0.16.
as §1
Mice were injected with Osteosense (to label sites of bone-forming activity via osteoblast binding of this probe) and Prosense (to label sites of macrophage-mediated inflammation). Aortae were explanted and subjected to fluorescence reflectance imaging (LICOR Odyssey imager).
Inflammatory activity, a surrogate of atherosclerotic plaque burden, was assessed by near-IR fluorescence of Prosense (fluor-cathepsin substrate) at […]. Ten individual mice were used in each treatment group.
Inflammatory activity, a surrogate of atherosclerotic plaque burden, was assessed by integrated intensity of near-IR fluorescence of Prosense (fluor-cathepsin substrate) at […].
Each treatment group consisted of a total of 10 mice. After 4 weeks of atherogenic diet and drug or vehicle treatment, the animals were sacrificed. The frontal plane sections of the aortic arch were dissected out and stained for macrophage marker (MAC2) and counterstained with DAPI.

Setting [2] is: high fat diet and treatment 6 weeks, compound 13 2.5 mg/kg ip daily, ALK3-Fc 2 mg/kg ip every other day.

These results are taken from US20140038953A1, “COMPOSITIONS AND METHODS FOR CARDIOVASCULAR DISEASE” (THE GENERAL HOSPITAL CORPORATION, priority 2011, published 2014).

“Also recorded” adds a separate entry of the source.

As for `c1ccc2c(-c3cnn4cc(-c5ccc(N6CCNCC6)cc5)cnc34)ccnc2c1` [Compound 13, 4-[6-(4-piperazin-1-ylphenyl)pyrazolo[1,5-a]pyrimidin-3-yl]quinoline], the “aortic P-Smad (Smad 1/5/8 phosphorylation)” value in the assay on phospho-Smad 1/5/8 (2.5 mg/kg) is on record as “reduced aortic P-Smad”; with phospho-Smad 1/5/8 (listed as compound 13, 2.5 mg/kg), “reduced BMP signaling”. Moreover, in assay [1] (LDLR−/− mice on high fat diet 6 weeks, treated five days, compound 13 2.5 mg/kg ip daily, ALK3-Fc 2 mg/kg ip every other day), the “p-SMAD1/5/8 within atherosclerotic lesions” value was “suppressed phosphorylation of SMADs 1/5/8; also recorded: markedly diminished the detection of p-SMAD1/5/8”. Further, in assay [1] (LDLR−/− mice treated during 6 weeks of high fat diet, compound 13 2.5 mg/kg ip daily, ALK3-Fc every other day, 2.5 mg/kg), the “p-SMAD1/5/8 staining in aorta” value was “decreased staining for phosphorylated SMAD1/5/8”. Also, the “phosphorylated-SMAD1/5/8 staining in atheroma” value in assay [1] (LDLr−/− mice, hypercholesterolemic diet and treatment 8 weeks, 2.5 mg/kg/d ip) was “greatly diminished”. The “MAC2 staining of aortic arch” value with LDLR−/− mice (atherogenic diet and treatment 4 weeks, compound 13 2.5 mg/kg IP daily, ALK3-Fc 2 mg/kg IP every other day) is reported as “decreased staining for MAC2”. Further, the “vascular inflammation / macrophage activity (Prosense)” value is “marked reduction in vascular inflammation; also recorded: severely diminished evidence of macrophage activity” in the assay with LDLR−/− mice; “can reduce vascular calcification and vascular inflammation” in the assay on LDLR−/− mice (listed as BMP inhibitor positive control compound). For the same compound, in the assay with LDLR−/− mice (setting [2]), the “foam cell accumulation / macrophage burden (MAC2)” value is recorded as “inhibited foam cell accumulation”. For the same compound, the “macrophage / cathepsin activity in aorta (Prosense)” value in the assay with LDLR−/− mice (setting [2]) is reported as “as did treatment with compound 13; also recorded: significantly reduced; also recorded: significantly inhibited”.
